Measured values published in ChEMBL document CHEMBL1143325 (Bioorg Med Chem, 2009).

What was measured:
Carbonic anhydrase 13 = Carbonic anhydrase 13 (Mus musculus, UniProt Q9D6N1)
Carbonic anhydrase 2 = Carbonic anhydrase 2 (Homo sapiens, UniProt P00918)
Carbonic anhydrase 3 = Carbonic anhydrase 3 (Homo sapiens, UniProt P07451)
Carbonic anhydrase 4 = Carbonic anhydrase 4 (Homo sapiens, UniProt P22748)
Carbonic anhydrase 9 = Carbonic anhydrase 9 (Homo sapiens, UniProt Q16790)
[1] = molecular target: Carbonic anhydrase 5A, mitochondrial (Homo sapiens, UniProt P35218)
[2] = molecular target: Carbonic anhydrase 5B, mitochondrial (Homo sapiens, UniProt Q9Y2D0)
Carbonic anhydrase 6 = Carbonic anhydrase 6 (Homo sapiens, UniProt P23280)
Carbonic anhydrase 14 = Carbonic anhydrase 14 (Homo sapiens, UniProt Q9ULX7)
Carbonic anhydrase 7 = Carbonic anhydrase 7 (Homo sapiens, UniProt P43166)
Chain of Carbonic anhydrase 7 (P43166 whole entry): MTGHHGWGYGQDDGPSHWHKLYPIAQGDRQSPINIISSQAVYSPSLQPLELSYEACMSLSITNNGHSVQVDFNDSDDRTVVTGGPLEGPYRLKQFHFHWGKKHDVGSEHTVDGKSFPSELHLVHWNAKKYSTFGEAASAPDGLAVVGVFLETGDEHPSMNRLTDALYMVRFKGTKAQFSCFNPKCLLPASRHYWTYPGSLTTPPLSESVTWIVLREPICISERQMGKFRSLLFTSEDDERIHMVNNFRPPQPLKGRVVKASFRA

Chain of Carbonic anhydrase 3 (P07451 whole entry): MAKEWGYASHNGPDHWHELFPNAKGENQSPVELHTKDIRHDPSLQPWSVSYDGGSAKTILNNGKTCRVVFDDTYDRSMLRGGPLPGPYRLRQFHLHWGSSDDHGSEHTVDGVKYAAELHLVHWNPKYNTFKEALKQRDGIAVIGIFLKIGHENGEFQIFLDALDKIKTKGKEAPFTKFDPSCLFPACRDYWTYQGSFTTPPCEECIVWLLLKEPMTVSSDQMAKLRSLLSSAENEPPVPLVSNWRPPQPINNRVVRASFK
Chain of Carbonic anhydrase 5A, mitochondrial (P35218 whole entry): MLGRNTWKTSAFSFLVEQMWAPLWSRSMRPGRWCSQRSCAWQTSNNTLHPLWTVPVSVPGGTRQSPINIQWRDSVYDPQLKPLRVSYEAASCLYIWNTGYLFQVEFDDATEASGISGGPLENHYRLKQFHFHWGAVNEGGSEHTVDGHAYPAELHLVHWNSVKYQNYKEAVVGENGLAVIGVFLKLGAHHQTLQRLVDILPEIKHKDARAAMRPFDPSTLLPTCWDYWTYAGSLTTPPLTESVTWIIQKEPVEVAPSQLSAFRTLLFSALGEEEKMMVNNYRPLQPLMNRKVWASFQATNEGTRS
Chain of Carbonic anhydrase 14 (Q9ULX7 whole entry): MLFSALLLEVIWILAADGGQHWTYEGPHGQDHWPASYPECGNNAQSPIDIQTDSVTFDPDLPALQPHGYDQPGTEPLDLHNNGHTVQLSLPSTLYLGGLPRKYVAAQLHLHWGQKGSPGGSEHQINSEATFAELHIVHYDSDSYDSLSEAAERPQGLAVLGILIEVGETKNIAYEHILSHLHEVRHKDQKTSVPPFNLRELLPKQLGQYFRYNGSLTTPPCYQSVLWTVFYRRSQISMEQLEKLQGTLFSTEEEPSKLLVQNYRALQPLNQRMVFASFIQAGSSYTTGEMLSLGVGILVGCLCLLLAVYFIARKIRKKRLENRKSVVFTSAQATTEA
Chain of Carbonic anhydrase 13 (Q9D6N1 whole entry): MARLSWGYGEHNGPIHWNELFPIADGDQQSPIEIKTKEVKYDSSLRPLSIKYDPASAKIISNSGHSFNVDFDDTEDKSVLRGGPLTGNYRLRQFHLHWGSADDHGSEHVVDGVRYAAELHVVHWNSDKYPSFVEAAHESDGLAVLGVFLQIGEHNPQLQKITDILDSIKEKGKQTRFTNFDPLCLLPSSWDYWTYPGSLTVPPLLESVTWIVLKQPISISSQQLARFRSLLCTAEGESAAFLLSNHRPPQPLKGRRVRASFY
Chain of Carbonic anhydrase 6 (P23280 whole entry): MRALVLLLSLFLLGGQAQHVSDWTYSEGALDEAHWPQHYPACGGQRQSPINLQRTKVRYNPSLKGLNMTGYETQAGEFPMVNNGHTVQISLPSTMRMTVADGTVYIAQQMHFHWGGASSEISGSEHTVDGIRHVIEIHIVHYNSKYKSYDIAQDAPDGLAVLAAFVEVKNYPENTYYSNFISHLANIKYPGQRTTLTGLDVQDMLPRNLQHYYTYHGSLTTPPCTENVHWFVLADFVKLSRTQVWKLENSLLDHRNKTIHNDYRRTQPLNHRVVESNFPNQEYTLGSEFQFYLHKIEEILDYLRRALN
Chain of Carbonic anhydrase 5B, mitochondrial (Q9Y2D0 whole entry): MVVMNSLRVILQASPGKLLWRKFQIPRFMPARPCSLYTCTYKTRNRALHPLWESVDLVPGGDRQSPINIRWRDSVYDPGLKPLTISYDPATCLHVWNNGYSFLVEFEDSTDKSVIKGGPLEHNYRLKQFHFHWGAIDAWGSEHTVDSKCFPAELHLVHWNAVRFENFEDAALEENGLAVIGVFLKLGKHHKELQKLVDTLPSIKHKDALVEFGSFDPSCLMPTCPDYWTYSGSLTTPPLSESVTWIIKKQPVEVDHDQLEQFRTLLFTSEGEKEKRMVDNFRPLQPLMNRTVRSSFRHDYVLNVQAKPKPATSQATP
Chain of Carbonic anhydrase 4 (P22748 whole entry): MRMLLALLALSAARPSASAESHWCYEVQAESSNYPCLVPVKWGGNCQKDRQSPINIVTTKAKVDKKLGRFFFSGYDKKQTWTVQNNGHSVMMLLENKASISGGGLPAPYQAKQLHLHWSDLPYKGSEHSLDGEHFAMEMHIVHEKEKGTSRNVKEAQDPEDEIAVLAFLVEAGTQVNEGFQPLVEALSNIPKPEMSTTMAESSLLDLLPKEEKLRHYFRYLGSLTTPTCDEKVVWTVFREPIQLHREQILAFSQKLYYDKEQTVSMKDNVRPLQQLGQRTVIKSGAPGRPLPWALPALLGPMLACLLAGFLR

| Structure (SMILES) | Ki (Carbonic anhydrase 13) [µM] | Ki (Carbonic anhydrase 2) [µM] | Ki (Carbonic anhydrase 3) [µM] | Ki (Carbonic anhydrase 4) [µM] | Ki (Carbonic anhydrase 9) [µM] | Ki [1] [µM] | Ki [2] [µM] | Ki (Carbonic anhydrase 6) [µM] | Ki (Carbonic anhydrase 14) [µM] | Ki (Carbonic anhydrase 7) [µM] |
| --- | --- | --- | --- | --- | --- | --- | --- | --- | --- | --- |
| NS(=O)(=O)c1cc(C2(O)NC(=O)c3ccccc32)ccc1Cl (configuration not stated) [CHLORTHALIDONE] | 0.015 | 0.138 | 11 | 0.196 | 0.023 | 0.917 | 0.009 | 1.35 | 4.13 | 0.0028 |
| NS(=O)(=O)c1cc(C(=O)O)c(NCc2ccco2)cc1Cl [FUROSEMIDE] |  |  | 3200 |  |  |  |  |  |  |  |
| CC1Cc2ccccc2N1NC(=O)c1ccc(Cl)c(S(N)(=O)=O)c1 (configuration not stated) [INDAPAMIDE] |  |  | 230 |  |  |  |  |  |  |  |
